Results reported in ChEMBL document CHEMBL1201862, “PubChem BioAssay data set” (2004).
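Where inhibition never reached the appropriate level, the endpoint shown equals the highest concentration tested. Otherwise, values were interpolated linearly from a five-concentration, 48-hour dose response in 96-well plates. GI50 is the concentration that inhibits growth by half.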 Activity calls are given as the source filed them. No stated cut-off is given here; in the data, active = GI50 up to about 1.1 µM and inactive = higher.

Key:
Assay in all cases: inhibition of tumour cell growth, NCI panel, 48 h
KM12 = system: KM12
NCI/ADR-RES = system: NCI/ADR-RES
SNB-75 = system: SNB-75
MOLT-4 = system: MOLT-4
A549 = system: A549
MDA-N = system: MDA-N
UACC-62 = system: UACC-62
SK-MEL-2 = system: SK-MEL-2
MDA-MB-231 = system: MDA-MB-231
COLO 205 = system: COLO 205
T47D = system: T47D
786-0 = system: 786-0
SF-295 = system: SF-295
SN12C = system: SN12C
NCI-H23 = system: NCI-H23
TK-10 = system: TK-10
MCF7 = system: MCF7
RXF 393 = system: RXF 393
EKVX = system: EKVX
HCC 2998 = system: HCC 2998
OVCAR-5 = system: OVCAR-5
SW-620 = system: SW-620
NCI-H522 = system: NCI-H522
HOP-62 = system: HOP-62
Malme-3M = system: Malme-3M
HOP-92 = system: HOP-92
HT-29 = system: HT-29
RPMI-8226 = system: RPMI-8226
SF-268 = system: SF-268
MDA-MB-435 = system: MDA-MB-435
A498 = system: A498
Hs-578T = system: Hs-578T
OVCAR-4 = system: OVCAR-4
SK-MEL-28 = system: SK-MEL-28
DU-145 = system: DU-145
SK-MEL-5 = system: SK-MEL-5
UACC-257 = system: UACC-257
HCT-15 = system: HCT-15
OVCAR-8 = system: OVCAR-8
CCRF-CEM = system: CCRF-CEM
OVCAR-3 = system: OVCAR-3
LOX IMVI = system: LOX IMVI
SF-539 = system: SF-539
NCI-H226 = system: NCI-H226
HL-60 = system: HL-60
IGROV-1 = system: IGROV-1
SNB-19 = system: SNB-19
SK-OV-3 = system: SK-OV-3
SR = system: SR
M14 = system: M14
HCT-116 = system: HCT-116
ACHN = system: ACHN
CAKI-1 = system: CAKI-1
UO-31 = system: UO-31
U-251 = system: U-251
NCI-H460 = system: NCI-H460
PC-3 = system: PC-3
BT-549 = system: BT-549
K562 = system: K562

Cc1ccsc1C(=S)Nc1ccc(Cl)c(/C=N/OC(C)C)c1 was tested, and the GI50 (KM12) was 26.4 µM (inactive), the GI50 (NCI/ADR-RES) was 30 µM (inactive) and the GI50 (SNB-75) was 48.2 µM (inactive). For the same molecule, the GI50 (MOLT-4) was 11.2 µM (inactive), the GI50 (A549) was 46.6 µM (inactive) and the GI50 (MDA-N) was 37.8 µM (inactive). For the same molecule, the GI50 (UACC-62) was 64.1 µM (inactive), the GI50 (SK-MEL-2) was 55.1 µM (inactive) and the GI50 (MDA-MB-231) was 41.2 µM (inactive). The GI50 (COLO 205) was 18.7 µM (inactive), the GI50 (T47D) was 17.8 µM (inactive) and the GI50 (786-0) was 42.5 µM (inactive). The GI50 (SF-295) was 30.1 µM (inactive), the GI50 (SN12C) was 32.5 µM (inactive) and the GI50 (NCI-H23) was 20.1 µM (inactive). The GI50 (TK-10) was 65.3 µM (inactive), the GI50 (MCF7) was 15.6 µM (inactive) and the GI50 (RXF 393) was 20.5 µM (inactive). For the same molecule, the GI50 (EKVX) was 22.9 µM (inactive), the GI50 (HCC 2998) was 22.9 µM (inactive) and the GI50 (OVCAR-5) was > 100 µM (inactive). The GI50 (SW-620) was 34.3 µM (inactive), the GI50 (NCI-H522) was 28.3 µM (inactive) and the GI50 (HOP-62) was 64.9 µM (inactive). For the same molecule, the GI50 (Malme-3M) was 35.1 µM (inactive), the GI50 (HOP-92) was > 100 µM (inactive) and the GI50 (HT-29) was 27.5 µM (inactive). For the same molecule, the GI50 (RPMI-8226) was 14.7 µM (inactive), the GI50 (SF-268) was 86.3 µM (inactive) and the GI50 (MDA-MB-435) was 49.3 µM (inactive). The GI50 (A498) was 64 µM (inactive), the GI50 (Hs-578T) was 45.8 µM (inactive) and the GI50 (OVCAR-4) was 14.8 µM (inactive). The GI50 (SK-MEL-28) was 67.8 µM (inactive), the GI50 (DU-145) was 92.5 µM (inactive) and the GI50 (SK-MEL-5) was 25.2 µM (inactive). The GI50 (UACC-257) was 47.9 µM (inactive), the GI50 (HCT-15) was 15.5 µM and the GI50 (OVCAR-8) was 44.3 µM (inactive). For the same molecule, the GI50 (CCRF-CEM) was 38.1 µM (inactive), the GI50 (OVCAR-3) was 44.8 µM (inactive) and the GI50 (LOX IMVI) was 29.8 µM (inactive). The GI50 (SF-539) was > 100 µM (inactive), the GI50 (NCI-H226) was 31.3 µM (inactive) and the GI50 (HL-60) was 10.3 µM (inactive). For the same molecule, the GI50 (IGROV-1) was 25.8 µM (inactive), the GI50 (SNB-19) was 44.5 µM (inactive) and the GI50 (SK-OV-3) was 55.5 µM (inactive). For the same molecule, the GI50 (SR) was 16.3 µM (inactive), the GI50 (M14) was 37.7 µM (inactive) and the GI50 (HCT-116) was 27.4 µM (inactive). The GI50 (ACHN) was 25.2 µM (inactive), the GI50 (CAKI-1) was 46.3 µM (inactive) and the GI50 (UO-31) was 21.1 µM (inactive). The GI50 (U-251) was 36.6 µM (inactive), the GI50 (NCI-H460) was 32.7 µM (inactive) and the GI50 (PC-3) was 80.7 µM (inactive). For the same molecule, the GI50 (BT-549) was 67.9 µM (inactive).
O=P1(c2ccccc2)C(c2ccccc2)=CC=C1c1ccccc1 was tested, and the GI50 (KM12) was 16.7 µM (inactive), the GI50 (NCI/ADR-RES) was 30.7 µM (inactive) and the GI50 (SNB-75) was 20.7 µM (inactive). For the same molecule, the GI50 (MOLT-4) was 6.65 µM (inactive), the GI50 (A549) was 22.6 µM (inactive) and the GI50 (MDA-N) was 10.8 µM (inactive). The GI50 (UACC-62) was 18.8 µM (inactive), the GI50 (SK-MEL-2) was 11.3 µM (inactive) and the GI50 (MDA-MB-231) was 36.7 µM (inactive). For the same molecule, the GI50 (COLO 205) was 15 µM (inactive), the GI50 (T47D) was 8.95 µM (inactive) and the GI50 (786-0) was 26 µM (inactive). For the same molecule, the GI50 (SF-295) was 28.4 µM (inactive), the GI50 (SN12C) was 39.2 µM (inactive) and the GI50 (NCI-H23) was 21.5 µM (inactive). The GI50 (TK-10) was 13.2 µM (inactive), the GI50 (MCF7) was 10.4 µM (inactive) and the GI50 (RXF 393) was 29.9 µM (inactive). For the same molecule, the GI50 (EKVX) was 24.2 µM (inactive), the GI50 (HCC 2998) was 25.2 µM (inactive) and the GI50 (OVCAR-5) was 20.9 µM (inactive). The GI50 (SW-620) was 26.1 µM (inactive), the GI50 (NCI-H522) was 20 µM (inactive) and the GI50 (HOP-62) was 44.4 µM (inactive). The GI50 (Malme-3M) was 27.3 µM (inactive), the GI50 (K562) was 3.95 µM (inactive) and the GI50 (HOP-92) was 12.1 µM (inactive). The GI50 (HT-29) was 10.3 µM (inactive), the GI50 (RPMI-8226) was 3.31 µM (inactive) and the GI50 (SF-268) was 24.5 µM (inactive). For the same molecule, the GI50 (MDA-MB-435) was 12.4 µM (inactive), the GI50 (A498) was 16.8 µM (inactive) and the GI50 (Hs-578T) was 37.8 µM (inactive). For the same molecule, the GI50 (OVCAR-4) was 10.6 µM (inactive), the GI50 (SK-MEL-28) was 58.1 µM (inactive) and the GI50 (DU-145) was 41.8 µM (inactive). The GI50 (SK-MEL-5) was 6.24 µM (inactive), the GI50 (UACC-257) was 22.5 µM (inactive) and the GI50 (HCT-15) was 16 µM. The GI50 (OVCAR-8) was 14.6 µM (inactive), the GI50 (CCRF-CEM) was 12.3 µM (inactive) and the GI50 (OVCAR-3) was 12.2 µM (inactive). The GI50 (LOX IMVI) was 10.4 µM (inactive), the GI50 (SF-539) was 59 µM (inactive) and the GI50 (NCI-H226) was 26.4 µM (inactive). For the same molecule, the GI50 (HL-60) was 2.28 µM (inactive), the GI50 (IGROV-1) was 39.8 µM (inactive) and the GI50 (SNB-19) was > 100 µM (inactive). For the same molecule, the GI50 (SK-OV-3) was 59.4 µM (inactive), the GI50 (SR) was 11.9 µM (inactive) and the GI50 (M14) was 18.4 µM (inactive). The GI50 (HCT-116) was 9.25 µM (inactive), the GI50 (ACHN) was 28 µM (inactive) and the GI50 (CAKI-1) was 50.7 µM (inactive). The GI50 (UO-31) was 13.7 µM (inactive), the GI50 (U-251) was 13.3 µM (inactive) and the GI50 (NCI-H460) was 11.6 µM (inactive). For the same molecule, the GI50 (PC-3) was 15.3 µM (inactive) and the GI50 (BT-549) was 18.8 µM (inactive).
